# Measured values taken from patent US20260184712A1, “Heterocyclic Compounds as ENT Inhibitors and Compounds for Use in the Treatment of Cancers” (iTeos Belgium SA, priority 2022, published 2026).
# pIC50: −log10 of the molar value.
# Tested on: stimulated primary human T cells
# Experiment: T cell proliferation assay, Condition B (X-VIVO15, 2% HSA and 0.1% AAG)
# Type: cell-based
# Conditions: Homo sapiens, T-cell, 96 h; Condition B: X-VIVO15 medium containing HSA and α1-Acid Glycoprotein; anti-CD3/anti-CD28 beads, ATP, 4 days; CFSE-lo T cells
# Method: (§1) The goal of this study was to determine the potency of ENT1 inhibitors by measuring the rescued proliferation of stimulated primary human T cells incubated in the presence of 100 uM Adenosine triphosphate (ATP), in baseline conditions (condition A) or in the presence of various proteins known to bind small molecules (condition B).
# Condition B: X-VIVO15, 2% Human Serum Albumin (HSA) and 0.1% α-1-Acid Glycoprotein (AAG)
# (§2) Venous blood from healthy volunteers, all of whom signed an informed consent approved by the Ethics Committee (FOR—UIC—BV-050-01-01 ICF_HBS_HD Version 5.0), was obtained by ImmuneHealth (Centre Hospitalier Universitaire Tivoli, La Louviere, Belgium). Mononuclear cells were collected by density gradient centrifugation, using SepMate-50 tubes (StemCell Technologies, Grenoble, France) and Lymphoprep (Stemcell Technologies) according to the manufacturer's instructions. CD3+ T cells were isolated by immunomagnetic negative selection, using the EasySep Human T Cell Isolation Kit (StemCell Technologies) as per the manufacturer's instructions. CD3+ T cells were stored in heat inactivated FBS (hiFBS; Gibco, ThermoFisher Scientific, Merelbeke, Belgium) and 10% DMSO in liquid nitrogen.
# (§3) Purified human CD3+ T cells were thawed and washed once with RPMI1640 medium, UltraGlutamine (Lonza, Verviers, Belgium) containing 10% hiFBS. Cells were resuspended in PBS containing 10% hiFBS at 1×10^7 cells/ml. One volume of cells was combined with a matching volume of 2 μM CFSE solution in PBS, mixed well by pipetting, and incubated at room temperature for 5 minutes under rotation and protected from light. Excess CFSE was quenched by addition of PBS containing 10% hiFBS, and the cells were centrifuged (300×rcf, 7 minutes) and resuspended in X-VIVO15. Cells were again centrifuged and resuspended in X-VIVO15 for counting.
# (§4) Cells were resuspended at 1.6×10^6 cells/mL in X-VIVO15 medium (Condition A) or X-VIVO15 medium containing 4% (v/v) HSA (Sigma-Aldrich, Diegem, Belgium) and 0.2% (v/v) ai-Acid Glycoprotein (Sigma-Aldrich, Diegem, Belgium) (Condition B).
# (§5) […] of cell suspension (2×10^4 cells) was added to wells of sterile flat-bottom 384-well plates. Cells were activated by adding […] of anti-CD3 anti-CD28 coated microbeads (Dynabeads human T-activator CD3/CD28; Life Technologies, Paisley, UK) suspended in X-VIVO15 medium or X-VIVO15 medium containing 4% (v/v) HSA and 0.2% (v/v) ai-Acid Glycoprotein at a ratio of one microbead per two cells. Serial dilutions of the ENT1 inhibitors were conducted in X-VIVO15 medium and […] of the diluent was added to the wells. Cells were mixed by pipetting up and down and pre-incubated for 30 minutes in a 37° C. humidified tissue culture incubator with 5% CO2. After pre-incubation, cells were cultured in the presence or absence of ATP (Sigma-Aldrich) at a final concentration of […]. The final well volume was 50 μl in all cases. Experiments were performed in biological duplicates. Cells were mixed by pipetting up and down and incubated for 4 days in a 37° C. humidified tissue culture incubator with 5% CO2.
# (§6) Samples were run on a BD LSR Fortessa FACS machine (BD FACSDiva Software v9.0.1). Data were analyzed using FlowJo (BD, v10.7.1). T cell proliferation was determined by measuring the frequency of ‘CFSE^lo’ (i.e. CFSE-diluted).
# (§7) T cell proliferation data were analyzed using FlowJo software (Version 10.6.2). Dead cells and cellular debris were excluded on the basis of forward and side scatter profile and singlet cells were selected for further analysis.
# (§8) T cell proliferation was determined based on the percent CFSE^lo total T cells for each condition. The data were plotted on the y-axis against log molar (M) concentration of ENT1 inhibitors on the x-axis in GraphPad Prism (version 9.0.0). IC50 and IC90 values were generated with the ‘log(agonist) vs. response—Find ECanything(F))’ function with F constrained to 50 or 90, respectively. pICF values were generated by taking the −logECF values.
row,Compound,pIC50
1,C[C@H]1O[C@@H](n2c(NC3CCC(O)C3)nc3c(OCc4ccc([N+](=O)[O-])cc4)ncnc32)[C@H](O)[C@@H]1O (stereo partly drawn) [Compound 29],7.70 to 9.00
2,Cc1nc(-c2ccc(CSc3ncnc4c3ncn4[C@@H]3O[C@H](C)[C@@H](O)[C@H]3O)cc2)no1 [Compound 186],< 6.30
3,C[C@H]1O[C@@H](n2c(NCC3CC(F)(F)C3)nc3c(OCc4ccc(OC(F)F)nc4)ncnc32)[C@H](O)[C@@H]1O [Compound 114],6.30 to 7.70
4,C[C@H]1O[C@@H](n2c(Nc3cnn(C)c3)nc3c(OCc4ccc([N+](=O)[O-])cc4)ncnc32)[C@H](O)[C@@H]1O [Compound 17],6.30 to 7.70
5,C[C@H]1O[C@@H](n2c(NC3CCC(O)CC3)nc3c(OCc4ccc(OC(F)F)cc4)ncnc32)[C@H](O)[C@@H]1O (stereo partly drawn) [Compound 53],7.70 to 9.00
6,C[C@H]1O[C@@H](n2cnc3c(OCc4ccc(C#N)c(F)c4)ncnc32)[C@H](O)[C@@H]1O [Compound 174],< 6.30
7,C[C@H]1O[C@@H](n2c(NCC3CCOC3)nc3c(OCc4ccc(OC(F)F)cc4)ncnc32)[C@H](O)[C@@H]1O (stereo partly drawn) [Compound 112],6.30 to 7.70
8,C[C@H]1O[C@@H](n2c(NC3CCC(F)(F)C3)nc3c(OCc4ccc([N+](=O)[O-])cc4)ncnc32)[C@H](O)[C@@H]1O (stereo partly drawn) [Compound 9],7.70 to 9.00
9,C[C@H]1O[C@@H](n2c(NC3CCOC3)nc3c(OCc4ccc([N+](=O)[O-])cc4)ncnc32)[C@H](O)[C@@H]1O (stereo partly drawn) [Compound 18],7.70 to 9.00
10,C[C@H]1O[C@@H](n2cnc3c(OCc4ccc(Cl)cc4)ncnc32)[C@H](O)[C@@H]1O [Compound 187],< 6.30
11,CCNc1nc2c(OCc3ccc([N+](=O)[O-])cc3)ncnc2n1[C@@H]1O[C@H](C)[C@@H](O)[C@H]1O [Compound 20],6.30 to 7.70
12,O=[N+]([O-])c1ccc(CSc2ncnc3c2ncn3[C@@H]2O[C@H](CF)[C@@H](O)[C@H]2O)cc1 [Compound 159],< 6.30
13,CC(=O)NC[C@H]1O[C@@H](n2cnc3c(SCc4ccc([N+](=O)[O-])cc4)ncnc32)[C@H](O)[C@@H]1O [Compound 189],< 6.30
14,C[C@H]1O[C@@H](n2c(NC3CCOCC3)nc3c(OCc4ccc([N+](=O)[O-])cc4)ncnc32)[C@H](O)[C@@H]1O [Compound 30],7.70 to 9.00

# Target: T1, human ENT1 (Homo sapiens, UniProt Q99808)
# T1 construct: JAR cells expressing ENT1 were purchased from ATCC; host or cells: JAR cells
# T1 sequence (Q99808 1-456): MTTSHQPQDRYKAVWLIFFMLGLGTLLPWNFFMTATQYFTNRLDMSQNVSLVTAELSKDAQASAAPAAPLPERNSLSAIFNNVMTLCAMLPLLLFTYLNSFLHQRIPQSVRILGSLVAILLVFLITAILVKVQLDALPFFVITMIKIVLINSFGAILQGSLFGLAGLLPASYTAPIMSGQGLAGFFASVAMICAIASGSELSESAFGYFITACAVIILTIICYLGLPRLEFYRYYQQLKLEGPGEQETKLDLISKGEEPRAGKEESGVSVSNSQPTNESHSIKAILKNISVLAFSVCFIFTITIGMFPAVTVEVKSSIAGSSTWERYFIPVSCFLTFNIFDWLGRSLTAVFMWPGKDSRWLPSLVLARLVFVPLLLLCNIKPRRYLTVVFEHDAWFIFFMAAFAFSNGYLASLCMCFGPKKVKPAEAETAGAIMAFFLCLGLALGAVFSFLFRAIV
# Experiment: ENT1 binding assay (competition with Sahenta-DY647 on JAR cells)
# Conditions: competition with SAHENTA-DY647 binding; IC50 categorized; read-out: Binding Assay IC50
# Summary of the method: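 Whole-cell competition on JAR cells (native ENT1): 50,000 cells pre-incubated 30 min at 4 °C with compound in HBSS/10 mM Hepes/0.1% BSA, then 100 nM Sahenta-DY647 added for 30 min at 4 °C. After washing, fluorescence (Ex 630/Em 670 nm) read; IC50 from sigmoidal fit, averaged as pIC50.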
row,Compound,pIC50
1,C[C@H]1O[C@@H](n2c(NC3CCC(O)C3)nc3c(OCc4ccc([N+](=O)[O-])cc4)ncnc32)[C@H](O)[C@@H]1O (stereo partly drawn) [Compound 29],> 9.00
2,C[C@H]1O[C@@H](n2c(NCC3CC(F)(F)C3)nc3c(OCc4ccc(OC(F)F)nc4)ncnc32)[C@H](O)[C@@H]1O [Compound 114],7.70 to 9.00
3,C[C@H]1O[C@@H](n2c(Nc3cnn(C)c3)nc3c(OCc4ccc([N+](=O)[O-])cc4)ncnc32)[C@H](O)[C@@H]1O [Compound 17],7.70 to 9.00
4,C[C@H]1O[C@@H](n2c(NC3CCC(O)CC3)nc3c(OCc4ccc(OC(F)F)cc4)ncnc32)[C@H](O)[C@@H]1O (stereo partly drawn) [Compound 53],> 9.00
5,C[C@H]1O[C@@H](n2c(NCC3CCOC3)nc3c(OCc4ccc(OC(F)F)cc4)ncnc32)[C@H](O)[C@@H]1O (stereo partly drawn) [Compound 112],7.70 to 9.00
6,C[C@H]1O[C@@H](n2c(NC3CCC(F)(F)C3)nc3c(OCc4ccc([N+](=O)[O-])cc4)ncnc32)[C@H](O)[C@@H]1O (stereo partly drawn) [Compound 9],> 9.00
7,C[C@H]1O[C@@H](n2c(NC3CCOC3)nc3c(OCc4ccc([N+](=O)[O-])cc4)ncnc32)[C@H](O)[C@@H]1O (stereo partly drawn) [Compound 18],7.70 to 9.00
8,CCNc1nc2c(OCc3ccc([N+](=O)[O-])cc3)ncnc2n1[C@@H]1O[C@H](C)[C@@H](O)[C@H]1O [Compound 20],7.70 to 9.00
9,C[C@H]1O[C@@H](n2c(NC3CCOCC3)nc3c(OCc4ccc([N+](=O)[O-])cc4)ncnc32)[C@H](O)[C@@H]1O [Compound 30],> 9.00

# The next lines start with the values.
row,pIC50,Compound
1,6.30 to 7.70,Cc1nc(-c2ccc(CSc3ncnc4c3ncn4[C@@H]3O[C@H](C)[C@@H](O)[C@H]3O)cc2)no1 [Compound 186]
2,6.30 to 7.70,C[C@H]1O[C@@H](n2cnc3c(OCc4ccc(C#N)c(F)c4)ncnc32)[C@H](O)[C@@H]1O [Compound 174]
3,6.30 to 7.70,C[C@H]1O[C@@H](n2cnc3c(OCc4ccc(Cl)cc4)ncnc32)[C@H](O)[C@@H]1O [Compound 187]
4,7.70 to 9.00,O=[N+]([O-])c1ccc(CSc2ncnc3c2ncn3[C@@H]2O[C@H](CF)[C@@H](O)[C@H]2O)cc1 [Compound 159]
5,6.30 to 7.70,CC(=O)NC[C@H]1O[C@@H](n2cnc3c(SCc4ccc([N+](=O)[O-])cc4)ncnc32)[C@H](O)[C@@H]1O [Compound 189]

# Tested on: stimulated primary human T cells
# Experiment: T cell proliferation assay, Condition A (X-VIVO15)
# Type: cell-based
# Conditions: Homo sapiens, T-cell, 96 h; Condition A: X-VIVO15 medium; anti-CD3/anti-CD28 beads, ATP, 4 days; CFSE-lo T cells
# Method: as §1, §2, §3, §4, §5, §6, §7, §8
row,Compound,pIC50
1,C[C@H]1O[C@@H](n2c(NC3CCC(O)C3)nc3c(OCc4ccc([N+](=O)[O-])cc4)ncnc32)[C@H](O)[C@@H]1O (stereo partly drawn) [Compound 29],> 9.00
2,Cc1nc(-c2ccc(CSc3ncnc4c3ncn4[C@@H]3O[C@H](C)[C@@H](O)[C@H]3O)cc2)no1 [Compound 186],7.70 to 9.00
3,C[C@H]1O[C@@H](n2c(NCC3CC(F)(F)C3)nc3c(OCc4ccc(OC(F)F)nc4)ncnc32)[C@H](O)[C@@H]1O [Compound 114],> 9.00
4,C[C@H]1O[C@@H](n2c(Nc3cnn(C)c3)nc3c(OCc4ccc([N+](=O)[O-])cc4)ncnc32)[C@H](O)[C@@H]1O [Compound 17],7.70 to 9.00
5,C[C@H]1O[C@@H](n2c(NC3CCC(O)CC3)nc3c(OCc4ccc(OC(F)F)cc4)ncnc32)[C@H](O)[C@@H]1O (stereo partly drawn) [Compound 53],> 9.00
6,C[C@H]1O[C@@H](n2cnc3c(OCc4ccc(C#N)c(F)c4)ncnc32)[C@H](O)[C@@H]1O [Compound 174],7.70 to 9.00
7,C[C@H]1O[C@@H](n2c(NCC3CCOC3)nc3c(OCc4ccc(OC(F)F)cc4)ncnc32)[C@H](O)[C@@H]1O (stereo partly drawn) [Compound 112],> 9.00
8,C[C@H]1O[C@@H](n2c(NC3CCC(F)(F)C3)nc3c(OCc4ccc([N+](=O)[O-])cc4)ncnc32)[C@H](O)[C@@H]1O (stereo partly drawn) [Compound 9],> 9.00
9,C[C@H]1O[C@@H](n2c(NC3CCOC3)nc3c(OCc4ccc([N+](=O)[O-])cc4)ncnc32)[C@H](O)[C@@H]1O (stereo partly drawn) [Compound 18],> 9.00
10,C[C@H]1O[C@@H](n2cnc3c(OCc4ccc(Cl)cc4)ncnc32)[C@H](O)[C@@H]1O [Compound 187],7.70 to 9.00
11,CCNc1nc2c(OCc3ccc([N+](=O)[O-])cc3)ncnc2n1[C@@H]1O[C@H](C)[C@@H](O)[C@H]1O [Compound 20],> 9.00
12,O=[N+]([O-])c1ccc(CSc2ncnc3c2ncn3[C@@H]2O[C@H](CF)[C@@H](O)[C@H]2O)cc1 [Compound 159],7.70 to 9.00
13,CC(=O)NC[C@H]1O[C@@H](n2cnc3c(SCc4ccc([N+](=O)[O-])cc4)ncnc32)[C@H](O)[C@@H]1O [Compound 189],7.70 to 9.00
14,C[C@H]1O[C@@H](n2c(NC3CCOCC3)nc3c(OCc4ccc([N+](=O)[O-])cc4)ncnc32)[C@H](O)[C@@H]1O [Compound 30],> 9.00
